13 compounds from patent US20250382264A1, “HETEROCYCLE-CONTAINING AMINO ACID COMPOUND AND COMPLEX” (AICHI STEEL CORPORATION, priority 2022, published 2025) can be followed below.

A short description of series [1]: Absorbance of aqueous iron complex solution irradiated with ultraviolet rays (253.7 nm). It is filed as physicochemical. The note with it: aqueous solution of the Fe complex of the named ligand, Fe 100 μM, pH 5.0, ultraviolet 253.7 nm, 10-mm cell. On the procedure: For comparison, absorbance measurement was performed using an aqueous solution of each of an iron complex of ethylenediaminetetraacetic acid (EDTA) (hereinafter, referred to as “Fe-EDTA”), an iron complex of diethylenetriamine-N,N,N',N'',N''-pentaacetic acid (DTPA) (hereinafter, referred to as “Fe-DTPA”), an iron complex of hydroxybenzylethylenediamine (HBED) (hereinafter, referred to as “Fe-HBED”), an iron complex of N,N'-ethylene-bis([…]) (hereinafter, referred to as “Fe-EDDHA”), an iron complex of citric acid, and an iron complex (hereinafter, referred to as “Fe-PDMA”) of a compound represented by the following formula (hereinafter, referred to as “PDMA”). […] Subsequently, a deionized water was added to fill up to 220 mL. This aqueous solution was left to stand at a temperature of 25° C. for 1 hour to yield an aqueous solution of an iron complex having an Fe concentration of 100 μM (5.6 ppm). Thereafter, the absorbance of this aqueous complex solution was measured. […] Subsequently, a deionized water was added to fill up to 220 mL. […] Thereafter, the absorbance of this aqueous complex solution was measured in the same manner as described above (see Table 1). […] Subsequently, about 220 mL of a deionized water was added to the resultant mixture to yield an aqueous complex solution having an Fe concentration of 100 μM (5.6 ppm).

The test system of series [2] is corn variety "Launcher 82". Kind of series: Plant cultivation test (1): hydroponic cultivation of corn, leaf color (SPAD value). It is filed as in vivo. The conditions noted are these: 3 mL iron material with Fe 100 μM, 3rd day after administration, average of two pots. The procedure: Seeds of corn variety “Launcher 82” were placed on a paper towel wetted with tap water. 8 days after germination, the seedlings were immersed in 45 mL of a hydroponic nutrient solution (a liquid based on the formulation in the Horticultural Experiment Station). 2 days after that, 3 mL of iron materials including various aqueous complex solutions were administered to the seedlings. Then, on the 3rd day after the administration of the iron materials, the leaf color (SPAD value) of corn was measured. This hydroponic cultivation was performed in two pots, and the average value of the SPAD values was calculated. For comparison, an experiment of administering only iron sulfate and an experiment of administering no iron material were also performed.

The compound `O=C(O)[C@@H](O)CCN1CCC[C@H]1C(=O)O` [Compound V2] showed an Absorbance in series [1] of 0.193.

In turn, `N[C@@H](CCN1CCC[C@H]1C(=O)O)C(=O)O` [Compound V3] displayed an Absorbance in series [1] of 0.190.

Turning to `CC(=O)N[C@@H](CCN1CCC[C@H]1C(=O)O)C(=O)O` [Compound V4], the Absorbance in series [1] amounted to 0.144.

In turn, `O=C(CO)N[C@@H](CCN1CCC[C@H]1C(=O)O)C(=O)O` [Compound V5] had an Absorbance in series [1] of 0.350.

`O=C(O)CN[C@@H](CCN1CCC[C@H]1C(=O)O)C(=O)O` [Compound V6]: the Absorbance in series [1] amounted to 0.378.

Compound `CN(CCC(=O)O)[C@@H](CCN1CCC[C@H]1C(=O)O)C(=O)O` [Compound V7] returned an Absorbance in series [1] of 0.354.

In the case of `N[C@@H](CCN1CC[C@H]1C(=O)O)C(=O)O` [Compound V8], in series [1], the Absorbance was 0.195.

Turning to `O=C(O)[C@@H](O)CCN1CC[C@H]1C(=O)O` [Compound V9], in series [1], the Absorbance turned out to be 0.332.

For the compound `O=S(=O)([O-])[O-].[Fe+2]` [Fe only, iron sulfate], the “SPAD value Average” value in series [2] is reported as 9.5.

As for `O=C([O-])CN(CCN(CC(=O)[O-])CC(=O)[O-])CC(=O)[O-].[Fe+3]` [Fe-EDTA, iron complex of ethylenediaminetetraacetic acid], in series [1], the Absorbance was 1.452.

Regarding `O=C(O)C(O)CCN[C@@H](CCN1CCC[C@H]1C(=O)O)C(=O)O` (stereo partly shown) [Fe-PDMA], in series [1], the Absorbance amounted to 0.644.

“iron complex of diethylenetriamine-N,N,N′,N″,N″-pentaacetic acid [Fe-DTPA]” displayed an Absorbance in series [1] of 1.073.

For “iron complex of hydroxybenzylethylenediamine [Fe-HBED]”, the Absorbance in series [1] stood at 0.914.
